Source: ChEMBL document CHEMBL1201862, “PubChem BioAssay data set” (2004)
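Dose response: 5 concentrations. Exposure: 48 h. Format: 96-well plates. Endpoint: linear interpolation; highest concentration if not reached. Here, GI50 denotes the concentration required for 50% inhibition of growth.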 Active and inactive are the calls of the source. Cut-off read from the data, not from the text of the source: active = GI50 up to about 1.1 µM and inactive = higher.

Experiments:
Assay in all cases: DTP human tumour cell line panel, 48 h
SK-MEL-2 = system: SK-MEL-2
CAKI-1 = system: CAKI-1
MCF7 = system: MCF7
HCC 2998 = system: HCC 2998
UACC-62 = system: UACC-62
UO-31 = system: UO-31
NCI-H460 = system: NCI-H460
SF-268 = system: SF-268
HL-60 = system: HL-60
OVCAR-4 = system: OVCAR-4
PC-3 = system: PC-3
SK-MEL-5 = system: SK-MEL-5
OVCAR-3 = system: OVCAR-3
A549 = system: A549
M14 = system: M14
DU-145 = system: DU-145
UACC-257 = system: UACC-257
Malme-3M = system: Malme-3M
HT-29 = system: HT-29
SF-539 = system: SF-539

Measured: GI50

COc1cc2ccc(C(=O)NCCCNC(=O)c3ccc4cc(OC)c(OC)cc4c3)cc2cc1OC
inactive: SK-MEL-2 > 100 µM | CAKI-1 > 100 µM | MCF7 > 100 µM | HCC 2998 > 100 µM | UACC-62 > 100 µM | UO-31 > 100 µM | NCI-H460 33.7 µM | SF-268 > 100 µM | HL-60 > 100 µM | OVCAR-4 57.8 µM | PC-3 > 100 µM | SK-MEL-5 > 100 µM | OVCAR-3 > 100 µM | A549 > 100 µM | M14 > 100 µM | DU-145 > 100 µM | UACC-257 > 100 µM | Malme-3M > 100 µM | HT-29 > 100 µM | SF-539 53.3 µM

OCCCNc1[nH]cnc2nncc1-2
inactive: SK-MEL-2 > 100 µM | CAKI-1 9.82 µM | MCF7 > 100 µM | HCC 2998 > 100 µM | UACC-62 > 100 µM | UO-31 > 100 µM | NCI-H460 > 100 µM | SF-268 > 100 µM | HL-60 > 100 µM | OVCAR-4 > 100 µM | PC-3 > 100 µM | SK-MEL-5 > 100 µM | OVCAR-3 > 100 µM | A549 > 100 µM | M14 > 100 µM | DU-145 > 100 µM | UACC-257 > 100 µM | Malme-3M > 100 µM | HT-29 > 100 µM | SF-539 41.1 µM

CC(C)[Si](OC1=CCCCCC12C(=O)N(C)c1ccccc12)(C(C)C)C(C)C (stereo not given)
inactive: SK-MEL-2 18.2 µM | CAKI-1 16.5 µM | MCF7 16.9 µM | HCC 2998 21.7 µM | UACC-62 18.2 µM | UO-31 21.3 µM | NCI-H460 17.6 µM | SF-268 18.4 µM | HL-60 17.1 µM | OVCAR-4 24.7 µM | PC-3 25.5 µM | SK-MEL-5 17.5 µM | OVCAR-3 16.3 µM | A549 19.8 µM | M14 23.3 µM | DU-145 15 µM | UACC-257 14.9 µM | Malme-3M 20.2 µM | HT-29 20.5 µM | SF-539 22.5 µM

C=C1[C@@H]([C@@]2(C)C=CC(=O)C(C)(C)[C@@H]2CC(=O)OC)CC[C@@]2(C)[C@H](c3ccoc3)OC(=O)[C@H]3O[C@]132 [ANDIROBIN]
inactive: SK-MEL-2 > 100 µM | CAKI-1 > 100 µM | MCF7 > 100 µM | HCC 2998 > 100 µM | UACC-62 77.4 µM | UO-31 73.8 µM | NCI-H460 > 100 µM | SF-268 > 100 µM | HL-60 62.8 µM | OVCAR-4 > 100 µM | PC-3 40.7 µM | SK-MEL-5 68.2 µM | OVCAR-3 > 100 µM | A549 > 100 µM | M14 > 100 µM | DU-145 > 100 µM | UACC-257 > 100 µM | Malme-3M > 100 µM | HT-29 > 100 µM | SF-539 > 100 µM

N#Cc1c(Nc2nc3ccccc3s2)c2ccccc2n2c1nc1ccccc12
inactive: SK-MEL-2 > 100 µM | CAKI-1 > 100 µM | MCF7 > 100 µM | HCC 2998 > 100 µM | UACC-62 > 100 µM | UO-31 > 100 µM | NCI-H460 > 100 µM | SF-268 > 100 µM | HL-60 > 100 µM | OVCAR-4 > 100 µM | PC-3 > 100 µM | SK-MEL-5 > 100 µM | OVCAR-3 > 100 µM | A549 > 100 µM | M14 > 100 µM | DU-145 > 100 µM | UACC-257 > 100 µM | Malme-3M > 100 µM | HT-29 > 100 µM | SF-539 > 100 µM

N=C(N)NS(=O)(=O)c1ccc(NC(=O)c2cccc3c(NNc4ccc(S(N)(=O)=O)cc4)c4ccccc4nc23)cc1
inactive: SK-MEL-2 > 100 µM | CAKI-1 > 100 µM | MCF7 26.4 µM | HCC 2998 > 100 µM | UACC-62 > 100 µM | UO-31 > 100 µM | NCI-H460 83.4 µM | SF-268 73.5 µM | HL-60 30.6 µM | OVCAR-4 > 100 µM | PC-3 59.7 µM | SK-MEL-5 55.6 µM | OVCAR-3 36.1 µM | A549 > 100 µM | M14 > 100 µM | DU-145 > 100 µM | UACC-257 > 100 µM | Malme-3M 34.8 µM | HT-29 47 µM | SF-539 > 100 µM

O=C(/C=C/c1ccc2c(c1)OCO2)c1ccc(O)cc1
inactive: SK-MEL-2 16.9 µM | CAKI-1 15.2 µM | MCF7 11.1 µM | HCC 2998 17.9 µM | UACC-62 16.8 µM | UO-31 13.4 µM | NCI-H460 15 µM | SF-268 45.9 µM | HL-60 5.25 µM | OVCAR-4 18.4 µM | PC-3 15 µM | SK-MEL-5 15.6 µM | OVCAR-3 15.5 µM | A549 17.4 µM | M14 18.1 µM | DU-145 16.5 µM | UACC-257 15.3 µM | Malme-3M 15.3 µM | HT-29 15.4 µM | SF-539 17.4 µM

CC(=O)OC1=c2ccccc2=C(O)C2C1C=NN2C(C)=O (stereo not given)
inactive: SK-MEL-2 > 100 µM | CAKI-1 > 100 µM | MCF7 > 100 µM | HCC 2998 > 100 µM | UACC-62 > 100 µM | UO-31 > 100 µM | NCI-H460 > 100 µM | SF-268 > 100 µM | HL-60 > 100 µM | OVCAR-4 > 100 µM | PC-3 > 100 µM | SK-MEL-5 > 100 µM | OVCAR-3 > 100 µM | A549 > 100 µM | M14 > 100 µM | DU-145 > 100 µM | UACC-257 > 100 µM | Malme-3M 44.3 µM | HT-29 > 100 µM | SF-539 > 100 µM

Oc1[nH]c(Nc2cccc(Cl)c2)nc2ncnc1-2
inactive: SK-MEL-2 86.3 µM | CAKI-1 > 100 µM | MCF7 > 100 µM | HCC 2998 76.6 µM | UACC-62 63.7 µM | UO-31 > 100 µM | NCI-H460 > 100 µM | SF-268 > 100 µM | HL-60 79.8 µM | OVCAR-4 > 100 µM | PC-3 25.4 µM | SK-MEL-5 > 100 µM | OVCAR-3 48.4 µM | A549 > 100 µM | M14 95.7 µM | DU-145 74.6 µM | UACC-257 > 100 µM | Malme-3M > 100 µM | HT-29 53.7 µM | SF-539 82.8 µM

Cc1ccc(C)n1-c1ccccc1C1C=Cn2c(=O)oc3c(OC(C)C)c(OC(C)C)c(O)c1c32 (stereo not given)
inactive: SK-MEL-2 7.33 µM | CAKI-1 22 µM | MCF7 16.6 µM | HCC 2998 8.57 µM | UACC-62 22.8 µM | UO-31 12.7 µM | NCI-H460 22.3 µM | SF-268 43.8 µM | HL-60 8.75 µM | OVCAR-4 32.6 µM | PC-3 5.11 µM | SK-MEL-5 14.4 µM | OVCAR-3 27.5 µM | A549 16.5 µM | M14 22.9 µM | DU-145 90.4 µM | UACC-257 17.1 µM | Malme-3M 33.7 µM | HT-29 18.2 µM | SF-539 > 100 µM
